From paper PMC11279807, “Modulation of the Antimelanoma Activity Imparted to Artemisinin Hybrids by the Monoterpene Counterpart” (Molecules, 2024)
Like-named read-outs stand apart in the source and are kept apart here.

What was measured:
C3PV = assay: MTT cell viability assay on normal fibroblasts C3PV; format: cell-based, human; settings: 24 h treatment, triplicates, read-out: IC50 (µM ± SD) C3PV
Protocol: (§1) The primary human healthy fibroblast C3PV cell line was grown in a culture medium containing 50% Dulbecco Modified Medium (DMEM) and 50% Ham’s F10 supplemented with 10% Fetal Bovine Serum (FBS). […] To all growing media were added 1% Pen/Strep and 1% Glutamine.
To study the effect of artemisinin derivatives on cell viability, MTT assay was performed. Briefly, C3PV, WM115, and WM266 cell lines were seeded in 96-well plates (3000 cells/well in 100 μL of medium) 24 h before treatment and incubated overnight to allow for cell adherence. […] The analyses of cell viability were performed at the end of the treatment. Triplicates were made in all experiments. After 24 h of treatment with newly synthesized compounds, the culture medium was replaced with a solution containing 0.5 mg/mL of MTT. After 3 h of incubation in an incubator, the medium was removed, and a lysis solution (10% SDS, 0.6% acetic acid in DMSO) was added to dissolve the formazan crystals. Optical density measurements were performed with a microplate reader EPOCH/2 (Biotek) with 630 nm (background) and a 570 nm filters.
(§2) The IC50 values were determined via non-linear regression, using the GraphPad Prism software package version 8 (GraphPad Software, San Diego, CA, USA). Results were expressed as means of IC50 values ± SD. The TSI values were calculated using the following formula: […]

WM115 = assay: MTT cell viability assay on primary melanoma cell line WM115; format: cell-based, human; settings: for IC50: primary melanoma WM115, MTT, 24 h treatment, triplicates, read-out: IC50 (µM ± SD) WM115; for TSI WM115: tumor selectivity index = IC50 on C3PV / IC50 on WM115
Protocol: as §1
(§3) To study the effect of artemisinin derivatives on cell viability, MTT assay was performed. Briefly, C3PV, WM115, and WM266 cell lines were seeded in 96-well plates (3000 cells/well in 100 μL of medium) 24 h before treatment and incubated overnight to allow for cell adherence. Afterward, the medium was replaced with a fresh one containing the appropriate dose of newly synthesized compounds (doses ranging from 0.01 to 1 μM were used for 24 h). The analyses of cell viability were performed at the end of the treatment. Triplicates were made in all experiments. After 24 h of treatment with newly synthesized compounds, the culture medium was replaced with a solution containing 0.5 mg/mL of MTT. After 3 h of incubation in an incubator, the medium was removed, and a lysis solution (10% SDS, 0.6% acetic acid in DMSO) was added to dissolve the formazan crystals. Optical density measurements were performed with a microplate reader EPOCH/2 (Biotek) with 630 nm (background) and a 570 nm filters.
as §2

WM266 [1] = assay: MTT cell viability assay on metastatic melanoma cell line WM266; format: cell-based, human; settings: for IC50: Homo sapiens; for TSI WM266: tumor selectivity index = IC50 on C3PV / IC50 on WM266
Protocol: as §1, §3, §2

WM266 [2] = assay: Cell viability assay in the presence or absence of DFO on WM266; format: cell-based; settings: Homo sapiens, treatment time 48 h
From the text: To obtain information about the mode of action of compounds 9c, 9f, 10b, and 10f, we repeated the cell viability assays on the metastatic cancer line WM266 in the presence of the Fe^2+ chelating agent deferoxamine (DFO). As mentioned above, Fe^2+ ions trigger endoperoxide bridge opening of the sesquiterpene counterpart by Fenton-like mechanisms, leading to the formation of carbon- and oxygen-centered radicals. Usually, this in cell formation of single-electron reactive species seems to be responsible for the biological activity of ART and its semisynthetic and hybrid derivatives. Sequestration of Fe^2 by DFO generally reduces the efficacy of the compounds studied.
DFO was used to study the mode of action of compounds 9c, 9f, 10b, and 10f on WM266 cell line. Twenty-four hours before treatment, cells were seeded in 96-well plates and incubated overnight. Then, cells were pre-treated with 20 μM of DFO for 1 h. After this time, two washes with PBS were performed, and, subsequently, fresh medium containing different doses of the opportune compound was added for 48h. The analyses of cell viability were performed at the end of treatment, and triplicates were made in all experiments.

[3] = Stability by NMR analyses after heating; format: physicochemical; settings: after heating at 45 and 100 °C for 8 and 2 h, respectively
Protocol: Based on cellular results, hybrids 9c, 9f, 10b, and 10f were selected for further studies. Their stability was evaluated by NMR analyses after heating them at 45 and 100 °C for 8 and 2 h, respectively (Supplementary Materials S1).

melanoma = settings: metastatic melanoma drug; cited from earlier work
[4] = WM266, 24 h, metastatic melanoma WM266, MTT, 24 h treatment, triplicates, read-out: IC50 (µM ± SD) WM266
[5] = WM266, reference hybrid on WM266, as printed in Table 2, read-out: IC50 ± SD R.H.
[6] = WM266, pre-treated with 20 μM DFO for 1 h, read-out: IC50 ± SD WM266 with DFO
[7] = WM266, without DFO, read-out: IC50 ± SD WM266 without DFO

IC50 (WM115; Homo sapiens, WM-115, 24 h) [µM]	IC50 (WM266 [1]; [4]) [µM]	IC50 (WM266 [1]; [5]) [µM]	decomposition by 1H NMR [3]	IC50 (WM115) [µM]	Compound	IC50 (C3PV; Homo sapiens, C3PV, 24 h) [µM]	TSI WM115 (WM115)	TSI WM266 (WM266 [1])	IC50 (WM266 [2]; [6]) [nM]	IC50 (WM266 [2]; [7]) [nM]	IC50 (melanoma) [nM]	IC50 (C3PV) [µM]
3 ± 0.4	1.9 ± 0.5	1.9 ± 0.5	less than 5%		CC(C)=CCCC(C)=CCOC1OC2OC3(C)CCC4C(C)CCC(C1C)C24OO3 (stereo not drawn) [Hybrid 9f]	87.3 ± 2.5	29.1	45.9	132700 ± 400	1900 ± 500		
					Cn1nnc2c(C(N)=O)ncn2c1=O [temozolomide]						< 50000	
0.03 ± 0.01	0.02 ± 0.01	0.02 ± 0.01	less than 5%		C=C(C)C1CC=C(COC(=O)CCC(=O)OC2OC3OC4(C)CCC5C(C)CCC(C2C)C35OO4)CC1 (stereo not drawn) [Hybrid 10b]	20.3 ± 5.5	676.7	1015.0	310 ± 100	20 ± 10		
		0.09 ± 0.03	less than 5%	0.4 ± 0.04	CC(C)=CCCC(C)=CCOC(=O)CCC(=O)OC1OC2OC3(C)CCC4C(C)CCC(C1C)C24OO3 (stereo not drawn) [Hybrid 10f]		19.8	87.8	500 ± 100	90 ± 30		7.9 ± 4.5
